According to ChEMBL document CHEMBL4043287, “A Structure-Activity Relationship Study of Bitopic N6-Substituted Adenosine Derivatives as Biased Adenosine A1 Receptor Agonists” (J Med Chem, 2018):
Calls of active or inactive are those of the source. The rule behind the calls is not given here.

How the values were obtained:
[1] = molecular target: Adenosine receptor A2a (Homo sapiens, UniProt P29274); test: Agonist activity at human A2A-AR expressed in FlpIn-CHO cells assessed as inhibition of forskolin-stimulated cAMP accumulation preincubated for 40 mins followed by forskolin addition measured after 30 mins by Alphascreen assay
[2] = molecular target: T1, Adenosine receptor A2b (Homo sapiens) (UniProt P29275); test: Agonist activity at human A2BAR expressed in FlpIn-CHO cells assessed as […] cAMP accumulation preincubated for 40 mins followed by forskolin addition measured after 30 mins by Alphascreen assay relative to control; assay type: functional, cell-based
T1 sequence (whole entry): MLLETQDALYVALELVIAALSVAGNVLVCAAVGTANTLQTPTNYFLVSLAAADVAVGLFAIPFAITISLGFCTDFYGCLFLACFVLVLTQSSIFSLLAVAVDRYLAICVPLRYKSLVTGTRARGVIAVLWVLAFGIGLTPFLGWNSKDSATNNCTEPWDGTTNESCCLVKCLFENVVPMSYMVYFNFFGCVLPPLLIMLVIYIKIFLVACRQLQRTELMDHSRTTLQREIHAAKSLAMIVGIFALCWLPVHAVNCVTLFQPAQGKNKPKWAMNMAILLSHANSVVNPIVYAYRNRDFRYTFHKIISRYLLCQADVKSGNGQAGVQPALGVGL

[3] = molecular target: T2, Adenosine receptor A3 (Homo sapiens, UniProt P0DMS8); test: Agonist activity at human A3AR expressed in FlpIn-CHO cells assessed as inhibition of forskolin-stimulated cAMP accumulation preincubated for 10 mins followed by forskolin addition measured after 30 mins by Alphascreen assay
T2 sequence (P0DMS8 whole entry): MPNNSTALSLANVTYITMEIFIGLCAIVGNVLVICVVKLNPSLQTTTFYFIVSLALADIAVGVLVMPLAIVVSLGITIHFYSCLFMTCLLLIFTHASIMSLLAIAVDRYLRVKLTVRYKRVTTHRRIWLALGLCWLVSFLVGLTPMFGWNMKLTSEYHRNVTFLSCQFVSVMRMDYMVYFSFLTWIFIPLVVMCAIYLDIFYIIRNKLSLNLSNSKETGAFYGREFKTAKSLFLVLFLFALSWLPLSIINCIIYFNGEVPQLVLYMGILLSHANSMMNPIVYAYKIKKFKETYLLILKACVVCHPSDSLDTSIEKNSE

[4] = molecular target: T3, Adenosine receptor A1 (Homo sapiens, UniProt P30542); test: Agonist activity at human A1AR expressed in FlpIn-CHO cells assessed as intracellular calcium mobilization by Fluo-4 dye-based fluorescence assay relative to control; assay type: cell-based
T3 sequence (P30542 whole entry): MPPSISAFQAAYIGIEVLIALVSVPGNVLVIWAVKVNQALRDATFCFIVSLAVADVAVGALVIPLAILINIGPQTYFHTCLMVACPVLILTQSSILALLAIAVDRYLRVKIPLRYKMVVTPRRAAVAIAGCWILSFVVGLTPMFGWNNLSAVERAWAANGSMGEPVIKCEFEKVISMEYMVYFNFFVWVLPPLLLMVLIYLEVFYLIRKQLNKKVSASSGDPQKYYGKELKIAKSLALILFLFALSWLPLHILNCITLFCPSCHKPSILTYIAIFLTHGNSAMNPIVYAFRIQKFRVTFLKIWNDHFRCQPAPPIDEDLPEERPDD

[5] = molecular target: T3, Adenosine receptor A1; test: Agonist activity at human A1AR expressed in FlpIn-CHO cells assessed as inhibition of forskolin-stimulated cAMP accumulation preincubated for 10 mins followed by forskolin addition measured after 30 mins by Alphascreen assay; assay type: functional, cell-based
[6] = molecular target: T4, Adenosine receptor A2b (Homo sapiens, UniProt P29275); test: Agonist activity at human A2BAR expressed in FlpIn-CHO cells assessed as […] cAMP accumulation preincubated for 40 mins followed by forskolin addition measured after 30 mins by Alphascreen assay; assay type: functional, cell-based
T4 sequence (P29275 whole entry): T1 sequence (whole entry)

[7] = molecular target: T5, Adenosine receptor A3 (Homo sapiens) (UniProt P0DMS8); test: Agonist activity at human A3AR expressed in FlpIn-CHO cells assessed as inhibition of forskolin-stimulated cAMP accumulation preincubated for 10 mins followed by forskolin addition measured after 30 mins by Alphascreen assay relative to control; assay type: functional, cell-based
T5 sequence (whole entry): T2 sequence (P0DMS8 whole entry)

[8] = molecular target: T3, Adenosine receptor A1; test: Agonist activity at human A1AR expressed in FlpIn-CHO cells assessed as intracellular calcium mobilization by measuring agonist transduction coefficient by Fluo-4 dye-based fluorescence assay; assay type: cell-based
[9] = molecular target: T3, Adenosine receptor A1; test: Agonist activity at human A1AR expressed in FlpIn-CHO cells assessed as intracellular calcium mobilization by Fluo-4 dye-based fluorescence assay; assay type: cell-based
[10] = molecular target: T5, Adenosine receptor A3 (Homo sapiens); test: Agonist activity at human A3AR expressed in FlpIn-CHO cells assessed as inhibition of forskolin-stimulated cAMP accumulation up to 10 uM preincubated for 10 mins followed by forskolin addition measured after 30 mins by Alphascreen assay; assay type: functional, cell-based

Adenosine receptor A2a, sequence (P29274 whole entry): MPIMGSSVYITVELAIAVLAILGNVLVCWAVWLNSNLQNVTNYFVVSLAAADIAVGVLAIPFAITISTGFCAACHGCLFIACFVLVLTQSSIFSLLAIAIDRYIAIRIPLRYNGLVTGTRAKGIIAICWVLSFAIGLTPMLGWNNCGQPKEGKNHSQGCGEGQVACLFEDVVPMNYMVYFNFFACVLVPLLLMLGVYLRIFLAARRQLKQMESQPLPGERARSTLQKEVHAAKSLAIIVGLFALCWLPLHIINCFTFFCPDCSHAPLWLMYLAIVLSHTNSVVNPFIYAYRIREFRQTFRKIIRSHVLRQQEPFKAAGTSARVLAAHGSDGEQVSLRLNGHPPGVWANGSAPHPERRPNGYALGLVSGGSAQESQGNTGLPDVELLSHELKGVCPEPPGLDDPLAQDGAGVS

SMILES | EC50 [1] | Emax [2] | EC50 [3] | Emax [4] | EC50 [5] | EC50 [6] | Emax [7] | log(activity) [8] | EC50 [9] | inhibition [10]
Nc1cc(-c2cccc(C(F)(F)F)c2)c(-c2ccc(C(=O)NCCCCCCNc3ncnc4c3ncn4[C@@H]3O[C@H](CO)[C@@H](O)[C@H]3O)cc2)s1 | 2690 nM | 28% | 282 nM | 42% | 38 nM | 447 nM | 58% | 6.86 | 110 nM | 
O=C(NCCCCCCNc1ncnc2c1ncn2[C@@H]1O[C@H](CO)[C@@H](O)[C@H]1O)c1ccc(-c2sccc2-c2cccc(C(F)(F)F)c2)cc1 | 646 nM | 44% | 347 nM | 49% | 170 nM | 91.2 nM | 26% | 7.03 | 77.6 nM | 
Nc1sc(-c2ccc(C(=O)NCCCCCCCNc3ncnc4c3ncn4[C@@H]3O[C@H](CO)[C@@H](O)[C@H]3O)cc2)c(-c2cccc(C(F)(F)F)c2)c1C(=O)c1ccccc1 | 4900 nM | 38% | 331 nM | 28% | 22.9 nM | 468 nM | 56% | 5.58 | 200 nM | 
CC(=O)Nc1sc(-c2ccc(C(=O)NCCCCCCNc3ncnc4c3ncn4[C@@H]3O[C@H](CO)[C@@H](O)[C@H]3O)cc2)c(-c2cccc(C(F)(F)F)c2)c1C(=O)c1ccccc1 | 2340 nM | 44% | 447 nM | 20% | 138 nM | 617 nM | 60% | 5.02 | 891 nM | 
O=C(NCCCCCCNc1ncnc2c1ncn2[C@@H]1O[C@H](CO)[C@@H](O)[C@H]1O)c1cccc(-c2cc(C(=O)c3ccccc3)cs2)c1 | 437 nM | 27% | 407 nM | 39% | 138 nM | 158 nM | 74% | 6.91 | 87.1 nM | 
Nc1sc(-c2ccc(C(=O)NCCCCCNc3ncnc4c3ncn4[C@@H]3O[C@H](CO)[C@@H](O)[C@H]3O)cc2)c(-c2cccc(C(F)(F)F)c2)c1C(=O)c1ccccc1 | 3630 nM | 52% | > 1000 nM | 31% | 95.5 nM | 63.1 nM |  | 6.11 | 74.1 nM | 
O=C(NCCCCCCNc1ncnc2c1ncn2[C@@H]1O[C@H](CO)[C@@H](O)[C@H]1O)c1ccc(-c2scc(C(=O)c3ccccc3)c2-c2cccc(C(F)(F)F)c2)cc1 | 2880 nM | 49% | > 1000 nM | 40% | 110 nM | 148 nM |  | 5.74 | 562 nM | 
CCNC(=O)[C@H]1O[C@@H](n2cnc3c(N)ncnc32)[C@H](O)[C@@H]1O [NECA] |  |  |  | 54% |  |  | 97% |  |  | 
Nc1sc(-c2ccc(C(=O)NCCCCCCNc3nc(Cl)nc4c3ncn4[C@@H]3O[C@H](CO)[C@@H](O)[C@H]3O)cc2)c(-c2cccc(C(F)(F)F)c2)c1C(=O)c1ccccc1 | 145 nM | 39% |  | 20% | 224 nM | 18.6 nM |  | 6.32 | 135 nM | inactive
Nc1sc(-c2ccc(C(=O)NCCCCCCNc3ncnc4c3ncn4[C@@H]3O[C@H](CO)[C@@H](O)[C@H]3O)cc2)c(-c2cccc(C(F)(F)F)c2)c1C(=O)c1ccccc1 | 2290 nM |  |  |  |  |  |  |  |  | 
Nc1sc(-c2ccccc2C(=O)NCCCCCCNc2ncnc3c2ncn3[C@@H]2O[C@H](CO)[C@@H](O)[C@H]2O)c(-c2cccc(C(F)(F)F)c2)c1C(=O)c1ccccc1 |  | 46% | 282 nM | 43% | 1290 nM | 288 nM | 103% | 5.74 | 1350 nM | 
CCNC(=O)[C@H]1O[C@@H](n2cnc3c(NCCCCCCNC(=O)c4ccc(-c5sc(N)c(C(=O)c6ccccc6)c5-c5cccc(C(F)(F)F)c5)cc4)ncnc32)[C@H](O)[C@@H]1O | 56.2 nM | 38% | 1410 nM | 16% | 97.7 nM | 75.9 nM | 75% | 6.33 | 56.2 nM | 
Nc1sc(-c2ccc(C(=O)NCCCCCCNc3ncnc4c3ncn4[C@@H]3O[C@H](CO)[C@@H](O)[C@H]3O)cc2)cc1C(=O)c1ccccc1 | 355 nM | 40% | 447 nM | 49% | 41.7 nM | 224 nM | 85% | 7.43 | 29.5 nM | 
O=C(NCCCCCCNc1ncnc2c1ncn2[C@@H]1O[C@H](CO)[C@@H](O)[C@H]1O)c1cccc(-c2cccs2)c1 | 1320 nM | 42% | 832 nM | 49% | 234 nM | 17.8 nM | 107% | 7.38 | 35.5 nM | 
Nc1sc(-c2cccc(C(=O)NCCCCCCNc3ncnc4c3ncn4[C@@H]3O[C@H](CO)[C@@H](O)[C@H]3O)c2)c(-c2cccc(C(F)(F)F)c2)c1C(=O)c1ccccc1 | 148 nM | 43% | 123 nM | 48% | 105 nM | 35.5 nM | 80% | 6.98 | 93.3 nM | 
Nc1ccc(-c2cccc(C(=O)NCCCCCCNc3ncnc4c3ncn4[C@@H]3O[C@H](CO)[C@@H](O)[C@H]3O)c2)s1 | 1070 nM | 45% | 64.6 nM | 47% |  | 60.3 nM | 72% | 7.4 | 34.7 nM | 
